Literature values in patent publication US8591947B2, “Dual controlled release dosage form” (Osmotica Kereskedelmi és Szolgáltató KFT, priority 2001, dated 2013).
Counter-ions that a name gives are not always drawn.

Row | SMILES | Solubility of component in water (U.S.P. term)
1 | COc1cccc(C2(O)CCCCC2CN(C)C)c1 (stereo not shown) [tramadol HCl] | freely soluble
2 | NCCCC[C@H](N[C@@H](CCc1ccccc1)C(=O)O)C(=O)N1CCC[C@H]1C(=O)O [lisinopril] | soluble
3 | COc1ccc2c3c1O[C@H]1C(=O)CC[C@@]4(O)[C@@H](C2)N(C)CC[C@]314 [oxycodone] | soluble
4 | C[C@]12C=CC(=O)C=C1CC[C@@H]1[C@@H]2C(=O)C[C@@]2(C)[C@H]1CC[C@]2(O)C(=O)CO [prednisone] | very slightly soluble
5 | O=[N+]([O-])O[C@@H]1CO[C@H]2[C@@H]1OC[C@@H]2O [isosorbide mononitrate] | freely soluble
6 | CN(C)CCC=C1c2ccccc2C=Cc2ccccc21 [cyclobenzaprine HCl] | freely soluble
7 | CCc1ccc(CCOc2ccc(CC3SC(=O)NC3=O)cc2)nc1 (stereo not shown) [pioglitazone HCl] | practically insoluble
8 | COc1ccccc1OCCNCC(O)COc1cccc2[nH]c3ccccc3c12 (stereo not shown) [carvedilol] | practically insoluble
9 | COC(=O)C1=C(C)NC(C)=C(C(=O)OCC(C)C)C1c1ccccc1[N+](=O)[O-] (stereo not shown) [nisoldipine] | practically insoluble
10 | CCCc1nn(C)c2c(=O)[nH]c(-c3cc(S(=O)(=O)N4CCN(C)CC4)ccc3OCC)nc12 [sildenafil citrate] | slightly soluble
11 | CC12CC3CC(C)(C1)CC(N)(C3)C2 [memantine HCl] | slightly soluble
12 | O=C1CC2(CCCC2)CC(=O)N1CCCCN1CCN(c2ncccn2)CC1 [buspirone HCl] | freely soluble
13 | NC(=O)N1c2ccccc2C=Cc2ccccc21 [carbamazepine] | practically insoluble
14 | CCOC(=O)C1=C(C)NC(C)=C(C(=O)OC)C1c1cccc(Cl)c1Cl (stereo not shown) [felodipine] | practically insoluble
15 | CN(C)CCCC1(c2ccc(F)cc2)OCc2cc(C#N)ccc21 (stereo not shown) [citalopram] | sparingly soluble
16 | Cc1c(OCC(F)(F)F)ccnc1C[S+]([O-])c1nc2ccccc2[nH]1 (stereo not shown) [lansoprazole] | practically insoluble
17 | CC[C@H](C)C(=O)O[C@H]1C[C@H](O)C=C2C=C[C@H](C)[C@H](CC[C@@H](O)C[C@@H](O)CC(=O)O)[C@H]21 [pravastatin sodium] | soluble
18 | Cc1ncc([N+](=O)[O-])n1CCO [metronidazole] | sparingly soluble
19 | CN[C@H]1CC[C@@H](c2ccc(Cl)c(Cl)c2)c2ccccc21 [sertraline HCl] | slightly soluble
20 | CC(C)NCC(O)COc1cccc2ccccc12 (stereo not shown) [propranolol HCl] | soluble
21 | CC(C)(C)NCC(O)c1ccc(O)c(CO)c1 (stereo not shown) [albuterol] | sparingly soluble
22 | CS(=O)(=O)c1ccc(C2=C(c3ccccc3)C(=O)OC2)cc1 [rofecoxib] | practically insoluble
23 | Clc1cccc(Cl)c1N=C1NCCN1 [clonidine HCl] | soluble

Row | SMILES | Solubility of component in water (U.S.P. term)
24 | OCc1cc(C(O)CNCCCCCCOCCCCc2ccccc2)ccc1O (stereo not shown) [salmeterol] | sparingly soluble
25 | COc1ccc(Cl)cc1C(=O)NCCc1ccc(S(=O)(=O)NC(=O)NC2CCCCC2)cc1 [glyburide] | practically insoluble
26 | C[C@@H]1C[C@H]2[C@@H]3CCC4=CC(=O)C=C[C@]4(C)[C@@]3(Cl)[C@@H](O)C[C@]2(C)[C@@]1(OC(=O)c1ccco1)C(=O)CCl [mometasone furoate] | practically insoluble
27 | Oc1ncnc2[nH]ncc12 [allopurinol] | very slightly soluble
28 | CC(=O)Oc1ccccc1C(=O)O [aspirin] | slightly soluble
29 | CNC(=C[N+](=O)[O-])NCCSCc1ccc(CN(C)C)o1 [ranitidine HCl] | very soluble
30 | COc1ccc2c3c1O[C@H]1C[C@@H](O)C=C[C@@]31CCN(C)C2 [galantamine HBr] | sparingly soluble
31 | NCC1(CC(=O)O)CCCCC1 [gabapentin] | freely soluble
32 | CC(=O)Nc1ccc(O)cc1 [acetaminophen] | very slightly soluble
33 | CC[C@H]1OC(=O)[C@H](C)[C@@H](O[C@H]2C[C@@](C)(OC)[C@@H](O)[C@H](C)O2)[C@H](C)[C@@H](O[C@@H]2O[C@H](C)C[C@H](N(C)C)[C@H]2O)[C@](C)(O)C[C@@H](C)CN(C)[C@H](C)[C@@H](O)[C@]1(C)O [azithromycin dihydrate] | practically insoluble
34 | Cc1cccc(CN2CCN(C(c3ccccc3)c3ccc(Cl)cc3)CC2)c1 (stereo not shown) [meclizine HCl] | soluble
35 | OCCOCCN1CCN(C(c2ccccc2)c2ccc(Cl)cc2)CC1 (stereo not shown) [hydroxyzine] | very soluble
36 | CN(C)CCC=C1c2ccccc2CCc2ccccc21 [amitriptyline] | freely soluble
37 | CCC(=O)O[C@@H](O[P@](=O)(CCCCc1ccccc1)CC(=O)N1C[C@H](C2CCCCC2)C[C@H]1C(=O)O)C(C)C [fosinopril sodium] | soluble
38 | CC(C)Cc1ccc(C(C)C(=O)O)cc1 (stereo not shown) [ibuprofen] | very slightly soluble
39 | O=C1N=C([O-])NC1(c1ccccc1)c1ccccc1.[Na+] [phenyloin sodium] | soluble
40 | CCN(C)C(=O)Oc1cccc([C@H](C)N(C)C)c1 [rivastigmine hydrogen tartrate] | very soluble
41 | CCOC(=O)[C@H](CCc1ccccc1)N[C@@H](C)C(=O)N1Cc2ccccc2C[C@H]1C(=O)O [quinapril] | freely soluble
42 | Cc1ccc(-c2cc(C(F)(F)F)nn2-c2ccc(S(N)(=O)=O)cc2)cc1 [celecoxib] | practically insoluble
43 | Cl.O=C(c1ccc(OCCN2CCCCC2)cc1)c1c(-c2ccc(O)cc2)sc2cc(O)ccc12 [ralozifene HCL] | very slightly soluble
44 | CC(CN1c2ccccc2Sc2ccccc21)N(C)C (stereo not shown) [promethazine HCl] | soluble
45 | CCOC(=O)C1=C(COCCN)NC(C)=C(C(=O)OC)C1c1ccccc1Cl (stereo not shown) [amlodipine besylate] | slightly soluble
46 | CN/C(=N/CCSCc1nc[nH]c1C)NC#N [cimetidine] | sparingly soluble
